# Source: patent US20030224973A1, “Minimising body gain in insulin treatment” (priority 2002, published 2003)
# Read-outs that look alike come from different tables or passages of the source.
# Columns and labels:
# [1] = system: patients with type 1 diabetes; assay: Example 2 b): 6-month extension trial (12 months of treatment), insulin detemir vs NPH insulin, IAsp as meal related insulin; assay type: in vivo, human; conditions: for ANOVA of weight after 12 months of treatment, ITT, Mean (least square mean): IAsp as meal related insulin; for body weight at End of trial, Mean: End of trial (12 months)
# Source text: A 6-month extension of a multi-centre, open-label, asymmetrically randomised, parallel trial.
# Patients who agreed to participate in the extension period continued treatment without interruption.
# Following completion of the 6-month initial period, the extension period included 3 visits (0, 3 and 6 months after the start of the extension period).
# The patients were advised to maintain their usual diet and daily activities.
# All patients who completed the 6-month treatment period in the trial described under Section a) above and who were able and willing to participate in the extension period were included. Thus, the Section b) trial included 316 patients.
# [2] = system: patients with type 1 diabetes; assay: Example 3: 6-month open-label parallel trial, once daily insulin detemir vs NPH insulin, basal/bolus regimen with human soluble insulin; assay type: in vivo; conditions: for ANOVA of weight after 6 months of treatment, ITT, Mean (least square mean): once daily basal, human soluble insulin at meals; for body weight at End of trial, Mean: End of trial (6 months)
# Source text: All patients were on a basal/bolus insulin regimen with human soluble insulin as meal-related insulin. […] The trial included a screening visit to assess patient eligibility and a randomisation visit (maximum 3 weeks after the screening visit) followed by a six-month treatment period. In order to achieve glycaemic control, the investigator had contact with the patients at least every other working day during the first two weeks of treatment or as long as necessary to achieve glycaemic control. A post-treatment follow-up visit was performed 2-6 days after the last visit.
# The study included 750 type 1 diabetic patients aged 18 years or above and having a HbAtc≦12%. […] The patients were to have no major diabetic complications or other significant diseases.
# [3] = system: patients with type 2 diabetes; assay: Example 4: 6-month open parallel trial, insulin detemir vs NPH insulin once or twice daily, basal/bolus regimen with NovoRapid; assay type: in vivo, human; conditions: for ANOVA of weight after 6 months of treatment, ITT, Mean (least square mean): NovoRapid with meals; for body weight at End of trial, Mean: End of trial (6 months)
# Source text: Multicentre, open, randomised, parallel trial comprising a screening visit and a randomisation visit followed by a six month treatment period of basal/bolus therapy with either insulin detemir or NPH once or twice daily as needed. The patients received NovoRapid® with meals as bolus insulin throughout the trial.
# The study included 506 type 2 diabetic patients aged 35 years or above with type 2 diabetes for ≧12 months treated with insulin or insulin analogues for at least 2 months, with a HbA1c≦12.0%, a basal insulin dose ≧30% of the total daily insulin dose and no other clinically relevant diseases were included in the trial.
# [4] = system: patients with type 1 diabetes; assay: Example 5: 16-week three arm trial, insulin detemir morning and pre-dinner, insulin detemir morning and bedtime, NPH insulin morning and bedtime, insulin aspart with meals; assay type: in vivo, human; conditions: for body weight at Baseline, Mean / body weight at End of trial, Mean: both detemir groups pooled; for body weight at End of trial, Mean: End of trial (16 weeks)
# Protocol: All patients received insulin aspart (IAsp) with meals. The trial included a Screening Visit to assess patient eligibility and a Randomisation Visit (maximum 2 weeks after the Screening Visit). The following 16 week treatment period included 5 visits. In addition, patients were contacted every second day in the first two weeks (or longer if necessary) to ensure that optimal basal insulin dose was achieved fast and smoothly. A post-treatment telephone Follow-up was performed approximately one week after the last visit.
# The study included 400 type 1 diabetic patients aged 18 or above with a BMI of ≦[…] and HbA1c<12%. The patients had had diabetes ≧12 months and had been treated on a basal/bolus regimen ≧2 months with a basal insulin requirement of ≧30% of the total daily insulin dose, and a total daily basal insulin dose below 100 IU. Patients were to have no major diabetic complications or other significant diseases.
# [5] = system: patients with type 1 diabetes; assay: Example 6: 16-week three-group trial, insulin detemir at 12-hour intervals, insulin detemir morning and bedtime, NPH morning and bedtime, insulin aspart at meals; assay type: in vivo, human; conditions: for average body weight gained: Morn_Bed groups; for body weight at Baseline, Mean / body weight at End of trial, Mean: both detemir groups pooled; for body weight at End of trial, Mean: End of trial (16 weeks)
# Protocol: A 16 week, multi-centre, multi-national, open, randomised three-group parallel study comparing administration of insulin detemir at 12-hour intervals, insulin detemir morning and bedtime and NPH morning and bedtime in patients with type 1 diabetes
# All patients received insulin aspart at meals. The trial included a Screening Visit to assess patient's eligibility and a Randomisation Visit, followed by a treatment period 16 of weeks. A post-treatment follow-up Visit was carried out approximately 1 week after the last visit.
# The study included 409 type 1 diabetic patients aged 18 or above and HbA1c≦12%. The patients had had diabetes >12 months and had been treated on a basal (twice daily)/bolus regimen ≧2 months using an intermediate/long-acting insulin as a basal insulin and fast-acting human insulin or insulin analogue as bolus insulin.
# [6] = system: patients with type 1 diabetes; conditions: for ANOVA of weight after 6 months of treatment, ITT, Mean (least square mean): type 1 diabetes, human soluble insulin as bolus, baseline weight as covariate
# Source text: Material and Methods: A total of 460 patients with no clinically significant diseases or diabetic complications were exposed (287 men and 173 women).
# (§1) The analysis is based upon an ANOVA model with treatment and country as fixed effects and weight at baseline as covariate.
# [7] = system: patients with type 1 diabetes; conditions: for ANOVA of weight after 6 months of treatment, ITT, Mean (least square mean): insulin aspart as bolus; for HbA, levels: After 6 months; for plasma glucose at 07:00: nightly plasma glucose profile, p<0.05
# Source text: One of the secondary objectives of the study was to compare the regimens in terms of the safety profile, including the body weight of the patients.
# The analysis is based upon an ANOVA model with treatment as fixed effect and weight at baseline as covariate.
# [8] = system: adult patients with type 1 diabetes; assay: Example 1 b): 6-month extension trial (12 months of treatment), insulin detemir vs NPH insulin, human soluble insulin as meal related insulin; conditions: for ANOVA of weight after 12 months of treatment, ITT, Mean (least square mean): human soluble insulin as meal related insulin; for body weight at End of trial, Mean: End of trial (12 months)
# Source text: (§2) All patients were on a basal (twice-daily)-bolus regimen with human soluble insulin as meal related insulin:
# as §1
# [9] = system: adult patients with type 1 diabetes; conditions: in vivo
# Source text: as §2, §1
# [10] = 16 weeks, Morn_Bed (morning and bedtime)
# [11] = 12 months, difference between treatments
# [12] = 12 months, not statistically significant
# [13] = 6 months, difference between treatments
substance,measurement,setting,value
NPH insulin: comparator basal insulin in the trials [reference compound],average body weight gained during the trial,[1]; 12 months,1.2 kg
same,"ANOVA of weight after 12 months of treatment, ITT, Mean (least square mean)",[1]; 12 months,72.8 kg
same,"body weight at Baseline, Mean",[1],71.5 kg
same,"body weight at End of trial, Mean",[1],72.7 kg
same,average body weight gained during the trial,[2]; 6 months,0.4 kg
same,"ANOVA of weight after 6 months of treatment, ITT, Mean (least square mean)",[2]; 6 months,76.7 kg
same,"body weight at Baseline, Mean",[2],76.1 kg
same,"body weight at End of trial, Mean",[2],76.5 kg
same,increase of mean body weight,[3]; 6 months,1.3 kg
same,"ANOVA of weight after 6 months of treatment, ITT, Mean (least square mean)",[3]; 6 months,88.6 kg
same,"body weight at Baseline, Mean",[3],89.7 kg
same,"body weight at End of trial, Mean",[3],91.0 kg
same,"ANOVA of Weight after 16 Weeks of Treatment, Adjusted for Change in HbA1c, ITT, Mean (least square mean)",[4]; [10],76.40 kg
same,"body weight at Baseline, Mean",[4],74.5 kg
same,"body weight at End of trial, Mean",[4],75.3 kg
same,"ANOVA of Weight after 16 Weeks of Treatment, Adjusted for Change in HbA1c, ITT, Mean (least square mean)",[5]; [10],76.04 kg
same,average body weight gained,[5]; 16 weeks,0.7 kg
same,"body weight at Baseline, Mean",[5],74.5 kg
same,"body weight at End of trial, Mean",[5],75.3 kg
same,average body weight gained during the trial,[6]; 6 months,0.7 kg
same,"ANOVA of weight after 6 months of treatment, ITT, Mean (least square mean)",[6]; 6 months,76.5 kg
same,"ANOVA of weight after 6 months of treatment, ITT, Mean (least square mean)",[7]; 6 months,71.8 kg
same,"HbA, levels",[7],7.64%
same,plasma glucose at 07:00,[7],9.5 mM/L
same,average body weight gained,[7]; over 6 months,0.7 kg
same,"ANOVA of weight after 12 months of treatment, ITT, Mean (least square mean)",[8]; 12 months,76.9 kg
same,weight gain,"[8]; 12 months, statistically significant",1.4 kg
same,"body weight at Baseline, Mean",[8],75.8 kg
same,"body weight at End of trial, Mean",[8],77.2 kg
same,proportion of patients with serious adverse events,[8]; during 12 months,13.4%
N^εB29-tetradecanoyl des(B30) human insulin [Insulin detemir],"ANOVA of weight after 12 months of treatment, ITT, Mean (least square mean)",[1]; 12 months,71.5 kg
same,"ANOVA of weight after 12 months, insulin detemir − NPH, Mean",[1]; [11],-1.34 kg
same,average body weight lost during the trial,[1]; [12],0.1 kg
same,"body weight at Baseline, Mean",[1],71.4 kg
same,"body weight at End of trial, Mean",[1],71.3 kg
same,difference in body weight between the groups,"[1]; after 12 months, statistically significant",1.3 kg
same,average body weight lost during the trial,[2]; 6 months,0.2 kg
same,"ANOVA of weight after 6 months, insulin detemir − NPH, Mean",[2]; [13],-0.52 kg
same,"ANOVA of weight after 6 months of treatment, ITT, Mean (least square mean)",[2]; 6 months,76.2 kg
same,"body weight at Baseline, Mean",[2],76.5 kg
same,"body weight at End of trial, Mean",[2],76.3 kg
same,increase of mean body weight,[3]; 6 months,0.4 kg
same,"ANOVA of weight after 6 months of treatment, ITT, Mean (least square mean)",[3]; 6 months,87.8 kg
same,"ANOVA of weight after 6 months, insulin detemir − NPH, Mean",[3]; [13],-0.79 kg
same,"body weight at Baseline, Mean",[3],85.4 kg
same,"body weight at End of trial, Mean",[3],85.8 kg
same,"Weight, Pairwise Comparison, Mean Difference Detemir Morn_Bed - NPH Morn_Bed",[4]; 16 weeks,-0.6 kg
same,"Weight, Pairwise Comparison, Mean Difference Detemir Morn_Dinner - Detemir Morn_Bed",[4]; 16 weeks,-0.7 kg
same,"Weight, Pairwise Comparison, Mean Difference Detemir Morn_Dinner - NPH Morn_Bed",[4]; 16 weeks,-1.3 kg
same,"ANOVA of Weight after 16 Weeks of Treatment, Adjusted for Change in HbA1c, ITT, Mean (least square mean)",[4]; [10],75.81 kg
same,"ANOVA of Weight after 16 Weeks of Treatment, Adjusted for Change in HbA1c, ITT, Mean (least square mean)","[4]; 16 weeks, Morn_Dinner (morning and pre-dinner)",75.12 kg
same,Weight in both insulin detemir groups compared with NPH insulin,"[4]; 16 weeks, statistically significant",lower
same,"body weight at Baseline, Mean",[4],76.3 kg
same,"body weight at End of trial, Mean",[4],76.2 kg
same,"Weight, Pairwise Comparison, Mean Diff. Detemir Morn_Bed - NPH Morn_Bed",[5]; 16 weeks,-0.6 kg
same,"ANOVA of Weight after 16 Weeks of Treatment, Adjusted for Change in HbA1c, ITT, Mean (least square mean)","[5]; 16 weeks, 12 h_interval",75.20 kg
same,average change of body weight,"[5]; 16 weeks, 12 h_interval group",maintained their weight
same,"ANOVA of Weight after 16 Weeks of Treatment, Adjusted for Change in HbA1c, ITT, Mean (least square mean)",[5]; [10],75.41 kg
same,average body weight gained,[5]; 16 weeks,0.2 kg
same,"Weight, Pairwise Comparison, Mean Diff. Detemir 12 h_interval - NPH Morn_Bed","[5]; 16 weeks, first comparison, p=0.0061",-0.8 kg
same,"Weight, Pairwise Comparison, Mean Diff. Detemir 12 h_interval - NPH Morn_Bed","[5]; 16 weeks, third comparison as printed, p=0.4772",-0.2 kg
same,"body weight at Baseline, Mean",[5],76.3 kg
same,"body weight at End of trial, Mean",[5],76.2 kg
same,"9-point blood glucose profiles, insulin detemir and NPH",[6]; 6 months,comparable
same,average body weight lost during the trial,[6]; 6 months,0.5 kg
same,"ANOVA of weight after 6 months of treatment, ITT, Mean (least square mean)",[6]; 6 months,75.4 kg
same,HbA1c absolute mean difference between treatments (insulin detemir-NPH),"[6]; after 6 months, 95% CI [−0.05, 0.22]",0.08 % point
same,number of patients with hypoglycaemic episodes between the two treatments,[6]; in vivo,not statistically significantly different
same,safety profiles between the two treatments,[6]; in vivo,comparable
same,intra-patient variation in fasting blood glucose (FBG) vs NPH,"[6]; not statistically significant, p=0.06",tendency towards lower intra-patient variation
same,difference in FPG between treatments,[6]; p=0.78,No statistically significant difference
same,proportion of patients with serious adverse events,[9],9.1%
same,"risk of hypoglycemia during the night, relative risk (detemir/NPH)",[9],0.71
same,"ANOVA of weight after 6 months of treatment, ITT, Mean (least square mean)",[7]; 6 months,70.9 kg
same,"Fasting plasma glucose difference, insulin detemir vs NPH insulin","[7]; 6 months, not statistically significant, p=0.097",-0.76 mM
same,difference in mean body weight between the groups,"[7]; 6 months, statistically significant",1 kg
same,"HbA, levels",[7],7.60%
same,Body weight (baseline adjusted) vs NPH insulin,"[7]; at the end of the trial, p<0.001",significantly lower
same,general safety profile between the two treatments,[7]; in vivo,similar
same,plasma glucose at 07:00,[7],7.6 mM/L
same,average body weight lost,"[7]; over 6 months, not statistically significant",0.2 kg
same,shapes of the nightly plasma glucose profiles vs NPH insulin,[7]; p=0.05,smoother and more stable
same,"ANOVA of weight after 12 months, insulin detemir − NPH, Mean",[8]; [11],-1.66 kg
same,"ANOVA of weight after 12 months of treatment, ITT, Mean (least square mean)",[8]; 12 months,75.2 kg
same,weight loss,[8]; [12],0.3 kg
same,"body weight at Baseline, Mean",[8],76.6 kg
same,"body weight at End of trial, Mean",[8],76.3 kg
same,HbA1c,[8]; after 12 months of treatment,7.9%
same,difference in body weight between groups,"[8]; after 12 months of treatment, p=0.002",1.7 kg
